According to US8815807B2, “Peptides and peptide compositions having osteoinductive activity” (President and Fellows of Harvard College, priority 2008, dated 2014):
Positions of bridges follow the written chain, without caps; N, C: chain ends. No end group written: not given here.

Assays:
Format in all cases: cell-based, human
[1] = system: hMSC cells; assay: Alkaline phosphatase (AP) in cells contacted with peptide-displaying clones (tertiary screen); conditions: for induction of osteoblastic marker enzyme alkaline phosphatase: additional screening of clones
Method: A tertiary screen of the identified peptides was performed. The effect of each peptide on target cells was determined by measuring amounts of osteoblastic marker alkaline phosphatase (AP). Clonally purified individual isolates, or sibling pools of multiple isolates, were tested using the secondary and tertiary screens.
Individual preparations of each bacterial peptide-bearing clone to be tested were induced to express peptides, and were heat-devitalized in boiled water, to kill the peptide-displaying bacteria. Fifty microliters of heat-devitalized bacterial suspension was poured into each well of a 96-well plate containing agar, and the plate was centrifuged at 2000 rpm to embed bacteria in the surface of the agar.
Clones were further tested to quantify amount of stimulation of alkaline phosphatase (AP) activity in contacted cells. […] DNA from this clone that stimulated AP expression was isolated and was sequenced, and the DNA sequence was used to obtain amino acid sequence VFLRGNNSGGRS (SEQ ID NO: 2). This amino acid sequence appears not to have been previously reported.
Osteoinductive peptides with activity that stimulated osteoblasts include: VFLRGNNSGGRS (SEQ ID NO:2), GKIHRHRGQAVE (SEQ ID NO: 3), HIRQMPVRAGLS (SEQ ID NO: 4), RQGVGSNGXIQK (SEQ ID NO: 5), ESHCLLGISCVL (SEQ ID NO: 6), QQLQQNVILET (SEQ ID NO: 7), RSKLVEFRTTG (SEQ ID NO: 8), RNWRMSRRGGM (SEQ ID NO: 9), CVRGRGRMAGSV (SEQ ID NO: 10), ITRGELATVRRS (SEQ ID NO: 11), LRLGVGMGRTC (SEQ ID NO: 12), ERFAGNRNQLQ (SEQ ID NO: 13), GGLGSVGWYWA (SEQ ID NO: 14), GCGKERGRRALK (SEQ ID NO: 15), GQERLWAFRWVP (SEQ ID NO: 16), RGVLRVGTGRSE (SEQ ID NO: 17), ITRGELATVRRS (SEQ ID NO: 18), RPALRLGLIGPS (SEQ ID NO: 19), TRTSVDAPIRX (SEQ ID NO: 20), SKALRGVGSVAS (SEQ ID NO: 21), and RRGQDRGHEPK (SEQ ID NO: 22).

[2] = system: MG63 cells; assay: Cellular ATP in MG63 cells on streptavidin-coated wells treated with biotinylated peptide; conditions: MG63 1,000 cells/well, 120 hours after seeding, 50-3200 pmole/well, FIG. 4, versus biotin only
Method: (§1) Cell growth and osteogenic inducing potential of each of the preparations of the biotinylated linear and the cyclic peptides was determined. The osteogenic potential of each peptide was analyzed by quantifying cellular ATP and alkaline phosphatase (AP) activity of osteoblast cells.
(§2) Peptides were added to the wells in titrated amounts (50 pmole/well, 100 pmole/well, 200 pmole/well, 400 pmole/well, 800 pmole/well, 1600 pmole/well, or 3200 pmole/well) and were immobilized on streptavidin-coated plastic well plates (384 wells per plate). The biotin-binding capacity of the plates was 50 pmole/well. Each well was washed to remove unbound biotinylated peptides. […] MG63 cells (1,000 cells/well) were inoculated into each well.
(§3) ATP (RFU/well) was measured at each of 24 hours and 120 hours after cells were seeded, and alkaline phosphatase (AP, RFU standardized by cell number) activity was measured 120 hours after cells were seeded.

[3] = system: MG63 cells; assay: Alkaline phosphatase activity of MG63 cells on streptavidin-coated wells treated with biotinylated peptide; conditions: MG63 1,000 cells/well, 120 hours after seeding, 50-3200 pmole/well, FIG. 5, versus biotin only
Method: as §1, §2, §3

Substance | induction of osteoblastic marker enzyme alkaline phosphatase [1] | further results
CVRGRGRMAGSV (The protein was designed and synthesized) [SEQ ID NO: 10] | induced osteoblastic marker enzyme alkaline phosphatase | –
ERFAGNRNQLQ (The protein was designed and synthesized) [SEQ ID NO: 13] | induced osteoblastic marker enzyme alkaline phosphatase | –
ESHCLLGISCVL (The protein was designed and synthesized) [SEQ ID NO: 6, osteopontin-like peptide] | induced osteoblastic marker enzyme alkaline phosphatase | cellular ATP amounts / cell growth, 120 hours [2]: induced cell growth; alkaline phosphatase (AP) activity, 120 hours [3]: production of osteogenic marker AP
GCGKERGRRALK (The protein was designed and synthesized) [SEQ ID NO: 15] | induced osteoblastic marker enzyme alkaline phosphatase | –
GEN/cyclic: biotinylated cyclic ESHCLLGISCVL (SEQ ID NO: 6), three mini-PEG repeats, synthesized by GEN (disulfide 4-10 (inferred); also: biotin, three mini-PEG repeats, attachment end not given here) | – | cellular ATP amounts / cell growth, 120 hours [2]: stimulated ATP production and cellular growth; alkaline phosphatase (AP) activity, 120 hours [3]: induced greater alkaline phosphatase activity than the controls
GEN/linear: biotinylated linear ESHCLLGISCVL (SEQ ID NO: 6), three mini-PEG repeats, synthesized by GEN (cysteine pairing not given here; also: biotin, three mini-PEG repeats, attachment end not given here) | – | cellular ATP amounts / cell growth, 120 hours [2]: stimulated ATP production and cellular growth; cellular ATP amounts / cell growth, 120 hours ([2]; listed as linear peptides synthesized by GEN): greater ATP amounts than those in wells treated with any of the other peptides; alkaline phosphatase (AP) activity, 120 hours [3]: induced greater alkaline phosphatase activity than the controls
GGLGSVGWYWA (The protein was designed and synthesized) [SEQ ID NO: 14] | induced osteoblastic marker enzyme alkaline phosphatase | –
GKIHRHRGQAVE (The protein was designed and synthesized) [SEQ ID NO: 3] | induced osteoblastic marker enzyme alkaline phosphatase | –
GQERLWAFRWVP (The protein was designed and synthesized) [SEQ ID NO: 16] | induced osteoblastic marker enzyme alkaline phosphatase | –
HIRQMPVRAGLS (The protein was designed and synthesized) [SEQ ID NO: 4] | induced osteoblastic marker enzyme alkaline phosphatase | –
ITRGELATVRRS (The protein was designed and synthesized) [SEQ ID NO: 11] | induced osteoblastic marker enzyme alkaline phosphatase | –
LRLGVGMGRTC (The protein was designed and synthesized) [SEQ ID NO: 12] | induced osteoblastic marker enzyme alkaline phosphatase | –
NEP/cyclic: biotinylated cyclic ESHCLLGISCVL (SEQ ID NO: 6), 15 atom-PEG, synthesized by NEP (disulfide 4-10 (inferred); also: biotin, 15 atom-PEG, attachment end not given here) | – | cellular ATP amounts / cell growth, 120 hours [2]: stimulated ATP production and cellular growth; alkaline phosphatase (AP) activity, 120 hours [3]: induced greater alkaline phosphatase activity than the controls
NEP/linear: biotinylated linear ESHCLLGISCVL (SEQ ID NO: 6), 15 atom-PEG, synthesized by NEP (cysteine pairing not given here; also: biotin, 15 atom-PEG, attachment end not given here) | – | cellular ATP amounts / cell growth, 120 hours [2]: stimulated ATP production and cellular growth; alkaline phosphatase (AP) activity, 120 hours [3]: induced greater alkaline phosphatase activity than the controls
QQLQQNVILET (The protein was designed and synthesized) [SEQ ID NO: 7] | induced osteoblastic marker enzyme alkaline phosphatase | –
RGVLRVGTGRSE (The protein was designed and synthesized) [SEQ ID NO: 17] | induced osteoblastic marker enzyme alkaline phosphatase | –
RNWRMSRRGGM (The protein was designed and synthesized) [SEQ ID NO: 9] | induced osteoblastic marker enzyme alkaline phosphatase | –
RPALRLGLIGPS (The protein was designed and synthesized) [SEQ ID NO: 19] | induced osteoblastic marker enzyme alkaline phosphatase | –
RQGVGSNGXIQK [SEQ ID NO: 5] | induced osteoblastic marker enzyme alkaline phosphatase | –
RRGQDRGHEPK (The protein was designed and synthesized) [SEQ ID NO: 22] | induced osteoblastic marker enzyme alkaline phosphatase | –
RSKLVEFRTTG (The protein was designed and synthesized) [SEQ ID NO: 8] | induced osteoblastic marker enzyme alkaline phosphatase | –
SKALRGVGSVAS (The protein was designed and synthesized) [SEQ ID NO: 21] | induced osteoblastic marker enzyme alkaline phosphatase | –
TRTSVDAPIRX [SEQ ID NO: 20] | induced osteoblastic marker enzyme alkaline phosphatase | –
VFLRGNNSGGRS (The protein was designed and synthesized) [SEQ ID NO: 2] | induced osteoblastic marker enzyme alkaline phosphatase | AP expression compared with control cells contacted with empty vector ([1]; clone-contacted cells): an order of magnitude more AP expression
